PMC5103170, “Total Synthesis, Structure, and Biological Activity of Adenosylrhodibalamin, the Non‐Natural Rhodium Homologue of Coenzyme B12” (Angewandte Chemie (International Ed. in English), 2016)
pKi: −log10 of the molar value.

Target: T1, 1,2-propanediol dehydratase (PduCDE) (Citrobacter freundii, UniProt P0DUM7+P0DUM8)
T1 construct: gene pduC; purified enzyme, alpha2beta2gamma2; construct details only in Supporting Information; with Propanediol dehydratase small subunit
T1 sequence (P0DUM7 1-554): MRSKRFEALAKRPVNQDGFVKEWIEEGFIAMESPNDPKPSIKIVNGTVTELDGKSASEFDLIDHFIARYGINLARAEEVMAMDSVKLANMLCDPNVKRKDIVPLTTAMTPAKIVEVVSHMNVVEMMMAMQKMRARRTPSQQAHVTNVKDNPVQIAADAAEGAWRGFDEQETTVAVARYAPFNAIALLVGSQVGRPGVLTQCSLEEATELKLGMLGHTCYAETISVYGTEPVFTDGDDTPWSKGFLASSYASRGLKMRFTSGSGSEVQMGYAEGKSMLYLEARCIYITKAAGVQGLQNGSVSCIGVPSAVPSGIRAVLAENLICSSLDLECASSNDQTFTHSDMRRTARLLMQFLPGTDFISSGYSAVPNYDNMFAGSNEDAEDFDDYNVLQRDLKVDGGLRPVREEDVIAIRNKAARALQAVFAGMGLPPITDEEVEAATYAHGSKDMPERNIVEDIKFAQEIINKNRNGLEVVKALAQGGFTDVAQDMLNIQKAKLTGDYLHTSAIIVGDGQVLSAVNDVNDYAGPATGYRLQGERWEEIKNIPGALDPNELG
T1 sequence (P0DUM8 1-224): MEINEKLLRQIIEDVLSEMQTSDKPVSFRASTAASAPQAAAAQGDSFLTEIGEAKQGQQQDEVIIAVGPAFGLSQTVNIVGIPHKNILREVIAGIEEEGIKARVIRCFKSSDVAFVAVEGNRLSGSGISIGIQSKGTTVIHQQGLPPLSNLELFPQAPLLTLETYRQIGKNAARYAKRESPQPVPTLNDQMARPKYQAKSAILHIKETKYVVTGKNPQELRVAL
T1 sequence (P0DUM9 1-172 partner): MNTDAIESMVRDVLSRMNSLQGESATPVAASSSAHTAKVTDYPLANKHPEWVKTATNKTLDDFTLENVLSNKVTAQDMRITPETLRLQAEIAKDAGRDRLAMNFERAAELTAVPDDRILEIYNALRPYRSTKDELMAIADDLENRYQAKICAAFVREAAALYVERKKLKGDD
Assay: enzyme inhibition kinetics, non-linear regression
Assay type: biochemical
Conditions: competitive with AdoCbl

| Substance | pKi (inactive as pseudo-coenzyme) | pKi |
| --- | --- | --- |
| AdoRbl | 5.16 | – |
| vitamin B12 | – | 5.60 |
